Two molecules from BindingDB's records for doi:10.1021/acs.jmedchem.0c00546 (University of Tennessee, 2020) can be followed below.

For the experiment, the target named is T1, Dihydrofolate reductase (Homo sapiens, UniProt P00374).
T1 sequence (P00374 whole entry): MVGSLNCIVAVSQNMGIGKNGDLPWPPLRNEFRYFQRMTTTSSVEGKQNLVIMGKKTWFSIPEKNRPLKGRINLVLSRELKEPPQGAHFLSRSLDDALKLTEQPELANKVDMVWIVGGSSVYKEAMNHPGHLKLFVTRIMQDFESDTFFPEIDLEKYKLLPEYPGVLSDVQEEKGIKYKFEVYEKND
Description: Inhibition of human DHFR in presence of DHF and NADPH by UV-vis spectrometry by Lineweaver-Burk plot analysis.

For the molecule `Nc1ccnc(N)n1` [Diaminopyrimidine], the Ki came to 180 µM.

Take `N[C@H](Cc1c[nH]c2ccccc12)C(=O)O` [(2R)-2-amino-3-(1H-indol-3-yl)propanoic acid]: the Ki was 880 µM.

By Ki is commonly meant a dissociation constant, usually derived from enzyme kinetics or from competition with a known ligand.
